Assay results as given in patent publication US20260123631A1, “NATURAL PORPHIN SALT AND USE THEREOF AS PLANT GROWTH REGULATOR AND PLANT IMMUNITY INDUCER” (NANJING BOSTEC BIOLOGICAL ENGINEERING CO., LTD, priority 2022, published 2026).

Key:
[1] = Stability of sample solutions in the dark/under light; type: physicochemical
Summary of the method: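 Salt in water, or acidic reference in 30–50% aqueous ethanol, at about 10 ppm; UV absorbance scanned 200–800 nm at 0, 1, 2, 3 h, stored at 25° C dark or under 30,000 lux light. Relative content = max-peak absorbance at each time divided by 0 h value (100%).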

mosaic virus = experiment: Controlling diseases in tobacco by spraying; type: in vivo, tobacco (Yunyan 87); details: 30 L/mu
Text: For each treatment, 4 plots relatively scattered were selected from the field, with each plot of 50 m^2. An agent was sprayed twice around May 28 and June 4 during a root-spreading stage (12 leaves to 14 leaves) after tobacco transplanting, respectively. A same spraying volume (30 L/mu) was adopted for each treatment. During the spraying operation, each leaf surface should be sprayed evenly without dead corners left.
On July 15, tobacco plants in all treatment plots were surveyed. An incidence grading survey was conducted according to the Grade and investigation method of tobacco diseases and insect pests GB/T23222-2008, and an incidence rate and a disease index were counted for each treatment plot.

[2] = Dilution and pH determination for sample solutions; type: physicochemical
Method: Method: 0.2500 g of a sample was accurately weighed and added to a 25 mL volumetric flask, dissolved with purified water, and diluted to a specified scale to prepare a 1.00% (10,000.0 ppm) initial solution. The initial solution was diluted with purified water in different ratios to prepare a series of solutions with a concentration of 1,000.0 ppm to 0.1 ppm. A pH value of each sample was determined three times.

[3] = Water solubility of the prepared salts; type: physicochemical
rice [4] = experiment: Rice yield in the sheath blight field experiment; type: in vivo, rice (Nanjing 9108); details: 3.0 mg/mu sprayed 3 times
Method: A test sample was dissolved, diluted, thoroughly stirred, and then applied, with an application area of 3 mu for each treatment. The harvesting was conducted on Nov. 8, 2021. On the eve of harvesting, the yield composition and structure were investigated. Then a yield per mu was measured.

rice [5] = experiment: Rice yield in the leaf blast field experiment; type: in vivo, rice (Nanjing 9108); details: 3 mg/mu sprayed 3 times
Method: The experiment was conducted according to experimental specifications in the field efficacy standard of GB/T17980.19-2000. In the experiment, the following two treatments were set: a first treatment: sodium iron chlorin was applied, and a second treatment: a blank control (water) was applied. A test sample was fully dissolved and diluted, and then applied. Based on the characteristics of disease and pest control, an agent was applied once at each of a late tillering stage (Jul. 22, 2021), a jointing-booting stage (Aug. 16, 2021), and a full heading stage (Aug. 30, 2021). […] Water amounts required per mu for the three times were 30 L, 45 L, and 45 L (sample concentrations: 0.1 ppm, 0.067 ppm, and 0.067 ppm), respectively. An area for each treatment was 3 mu. According to a five-point sampling method, 5 sampling points (20 m^2 per sampling point) were set for each treatment. The occurrence of leaf blast in rice was investigated in the field before harvesting.
The harvesting was conducted on Nov. 8, 2021. On the eve of harvesting, the yield composition and structure were investigated. Then a yield per mu was measured.

wheat = experiment: Germination of wheat and growth of seedlings; type: in vivo, wheat (Huaimai 35); details: for Root length / Root number / Root weight / Seedling height / Seedling weight: wheat seedlings
Method: Method: 3 replicates were set for each treatment. 50 full seeds with a consistent size were selected each time for each sample, disinfected with sodium hypochlorite for 5 min, rinsed with clear water, and placed in a plastic box filled with 100 g of a sand. 25 mL of a prepared sample solution was poured into the plastic box, and the seeds were arranged regularly. The plastic box was covered with a lid, and then incubated in a 25° C. incubator. The germination was determined when a length of a sprout of a wheat seed exceeded a half of a diameter (long axis) of the wheat seed (determination criterion). According to the growth of wheat, the germ exposure of seeds and the number of germinated seeds were recorded every day. On day 6, 10 wheat seedlings were randomly selected, and a root length, a plant height, and a root number were determined. On day 7, a root weight and an aboveground part weight were determined. All index data was produced based on 3 replicates.

Substance: sodium iron chlorin [Example 21]
- Relative content ([1]; in the dark, 25° C., 0 h): 100.0%
- Relative content ([1]; in the dark, 25° C., 1 h): 99.51%
- Relative content ([1]; in the dark, 25° C., 2 h): 99.60%
- Relative content ([1]; in the dark, 25° C., 3 h): 99.43%
- Relative content ([1]; under light 30,000 lux, 0 h): 100.00%
- Relative content ([1]; under light 30,000 lux, 1 h, salts in water, acidic reference in 30% to 50% ethanol): 69.35%
- Relative content ([1]; under light 30,000 lux, 2 h, salts in water, acidic reference in 30% to 50% ethanol): 59.05%
- Relative content ([1]; under light 30,000 lux, 3 h, salts in water, acidic reference in 30% to 50% ethanol): 54.02%
- Disease index (mosaic virus; 0.05 ppm sprayed twice): 8.94
- Relative control effect (mosaic virus; 0.05 ppm sprayed twice): 65.48%
- Disease index (mosaic virus; 0.10 ppm sprayed twice): 8.77
- Relative control effect (mosaic virus; 0.10 ppm sprayed twice): 66.13%
- Disease index (mosaic virus; 0.20 ppm sprayed twice): 8.15
- Relative control effect (mosaic virus; 0.20 ppm sprayed twice): 71.00%
- pH ([2]; 0.1 ppm in purified water): (6.79)
- pH ([2]; 1.0 ppm in purified water): (6.89)
- pH ([2]; 10.0 ppm in purified water): (7.23)
- pH ([2]; 20.0 ppm in purified water): (7.42)
- pH ([2]; 30.0 ppm in purified water): (7.51)
- pH ([2]; 100.0 ppm in purified water): (8.34)
- pH ([2]; 1000.0 ppm in purified water): (9.71)
- pH ([2]; 10000.0 ppm in purified water): (10.41)
- solubility in water [3]: easily soluble
- Ear number per mu (rice [4]): 26.14 10,000
- Filled grain number per ear (rice [4]): 99.93
- Thousand-grain weight (rice [4]): 27.00 g
- Yield (rice [4]): 705.38 kg/mu
- Yield increase rate (rice [4]; versus clear water): 11.46%
- Ear number per mu (rice [5]): 22.40 10,000
- Filled grain number per ear (rice [5]): 117.39
- Thousand-grain weight (rice [5]): 26.9 g
- Yield (rice [5]): 616.85 kg/mu
- Yield increase rate (rice [5]; versus water): 7.1%
- Germination rate of wheat (wheat; 0.0025 ppm): 94.0%
- Root length (wheat; 0.0025 ppm): 9.30 cm
- Root number (wheat; 0.0025 ppm): 5.3
- Root weight (wheat; 0.0025 ppm): 0.0953 g
- Seedling height (wheat; 0.0025 ppm): 8.88 cm
- Seedling weight (wheat; 0.0025 ppm): 0.170 g
- Germination rate of wheat (wheat; 0.0250 ppm): 95.3%
- Root length (wheat; 0.0250 ppm): 10.17 cm
- Root number (wheat; 0.0250 ppm): 5.2
- Root weight (wheat; 0.0250 ppm): 0.1027 g
- Seedling height (wheat; 0.0250 ppm): 9.13 cm
- Seedling weight (wheat; 0.0250 ppm): 0.178 g
- Germination rate of wheat (wheat; 0.2500 ppm): 93.3%
- Root length (wheat; 0.2500 ppm): 9.64 cm
- Root number (wheat; 0.2500 ppm): 4.9
- Root weight (wheat; 0.2500 ppm): 0.0867 g
- Seedling height (wheat; 0.2500 ppm): 7.95 cm
- Seedling weight (wheat; 0.2500 ppm): 0.145 g
